Results on 2 molecules are retold here after patent US20140350119A1, “OPHTHALMIC COMPOSITION COMPRISING GERANYLGERANYLACETONE” (ROHTO PHARMACEUTICAL CO., LTD., priority 2012, published 2014).

For one experiment, the system named is PC12. The experiment is described as follows: Protective effect against ischemic cell death induced by hypoxia and low glucose (cell viability, Cell Titer-Glo). The class given is cell-based, rat. The conditions noted are these: 30 μM, 2 h, then low glucose, zero percent O2, 8 h, FIG. 1, Tukey-Kramer test. From the text:
The progress of visual impairment in glaucoma is associated with retinal ganglion cell (RGC) death due to blood flow failure occurring near the optic nerve (Folia Pharmacol. Jpn. 128, 255-258 (2006)). With the use of PC12, which is a typical neural cell line established from rat adrenal […] pheochromocytoma and used also as a model cell for the functional evaluation of RGC (J Neurosci Res. 2000 May 15; 60(4): 495-503.), the cytoprotective effect of GGA against ischemic cell death induced by hypoxia and low glucose was evaluated.
Test samples were prepared as follows. The test substances were four types of GGAs that contain the all-trans form and the 5Z-mono-cis form at a weight ratio of 10:0, 8:2, 6:4, and 0:10, respectively. […]
After 8 hours of incubation, 100 μL of an equivalent mixture of a cell viability detection reagent Cell Titer-Glo (Promega) and PBS was added to each well and the luminescence produced by the reaction with ATP in living cells was measured with a luminometer (GloMax; Promega). The cell viability was calculated from the measured luminescence by the following formula and the cytoprotective effect of GGA against […] was examined.
Cell viability (%)=100×[(luminescence of base- or GGA-treated group)/(luminescence of non-treated group)]

Experiment [1] deals with rat models with glaucoma induced by NMDA. As to the kind of experiment: Protective effect for retinal ganglion cells against nerve damage by NMDA (thickness of inner plexiform layer). In kind it is in vivo, Sprague-Dawley (SD) rats. The conditions noted are these: once per day. From the text: In recent years the glutamate analogue NMDA (N-methyl-D-aspartate) has been widely reported to be one of causative agents of neurodegenerative diseases including Alzheimer's disease. In the ophthalmic field, NMDA is considered to be involved in optic nerve damage in glaucoma (Brain Research Bulletin, 81 (2010) 349-358). Accordingly, in this experiment rat models with glaucoma induced by NMDA were used to evaluate the neuroprotective effect of GGA.
To Sprague-Dawley (SD) rats, the all-trans form, the 5Z-mono-cis form and teprenone were separately pre-administered by oral administration (Test Example 1), intravitreal administration (Test Example 2) or ocular instillation administration (Test Example 3) and 5 μL of NMDA was administered into the vitreous body to induce nerve damage. For Test Example 2, a marketed therapeutic eye drop for glaucoma, AIPHAGAN (trade name), was intravitreally administered as a positive control once a day for five days. For each of Test Examples, a base not containing GGA or AIPHAGAN was administered as a control in the same manner as described above.
The dosage and regimen of Test Examples 1 to 3 are shown in Table 1 and the constitution of the base used in each tests are shown in Table 2.
Three days after administration of NMDA, the eyeballs were harvested, fixed with half Karnovsky's fixative for 24 hours, embedded in paraffin, thin sectioned and stained with hematoxylin-eosin (HE) to prepare histopathological sections. The histological sections were observed under an optical microscope and the thickness (μm) of the inner plexiform layer (IPL) of the retina was measured. From the thickness of the inner plexiform layer (IPL) of the retina, the neuroprotective effects of the test preparations were evaluated.

Experiment [2] concerns retinal detachment-induced animal. The conditions noted are these: intraperitoneal administration; Non Patent Literature 1; cited from earlier work.
The subject of the next experiment is glaucoma rat model. The conditions noted are these: intraperitoneal administration; Non Patent Literature 2; cited from earlier work.
Experiment [3] has as its system mouse with visual cell damage induced by light irradiation. Conditions: oral administration; Non Patent Literature 3; cited from earlier work.
Experiment [4] concerns mouse with retinal injury induced by ischemia. The conditions noted are these: oral administration; Non Patent Literature 4; cited from earlier work.
Experiment [5] has as its system multiple sclerosis mouse model. Conditions: oral administration; Non Patent Literature 5; cited from earlier work.
Setting [6] is: Test Example 1: oral, 800 mg/kg, 2 days, NMDA 4 mM, FIG. 6.

With `CC(=O)CC/C=C(/C)CC/C=C(\C)CC/C=C(\C)CCC=C(C)C` [5Z-mono-cis form, (5Z,9E,13E)-6,10,14,18-tetramethyl-5,9,13,17-nonadecatetrae n-2-one], the “Cytoprotective effect compared with GGA of weight ratio 6:4” value in the experiment on PC12 is “significantly higher cytoprotective effects”. Besides, the “Neuroprotective effect against nerve damage by NMDA compared with the base (IPL thickness)” value in experiment [1] (setting [6]) is given as “significant neuroprotective effects”; in experiment [1] (Test Example 2: intravitreal, 0.05% w/v, 5 days, NMDA 40 mM, FIG. 7), “significant neuroprotective effects”.
Turning to teprenone, the “Neuroprotective effect against nerve damage by NMDA compared with the base (IPL thickness)” value in experiment [1] (setting [6]) is “did not show a significant neuroprotective effect”. In addition, in experiment [2], the “Apoptosis of visual cells” value is “reduced the apoptosis of visual cells significantly” and the “Expression of heat shock protein 70” value is listed as “induced the expression of heat shock protein 70”. Moreover, in the experiment on glaucoma rat model, the “Expression of heat shock protein 72” value is on record as “induced the expression of heat shock protein 72”, the Optic nerve damage entry is “ameliorated optic nerve damage” and the “Retinal ganglion cell death” value is “reduced retinal ganglion cell death”. The “Thioredoxin and heat shock protein 72 in the retinal pigment epithelium” value in experiment [3] was “induced thioredoxin and heat shock protein 72”. Moreover, in experiment [4], the “Number of surviving retinal neurons” value is “significantly increased”. In experiment [5], the “Cell loss in the ganglion” value is given as “prevented cell loss”, the “Number of degenerating axons in the optic nerve” value is listed as “reduced the number of degenerating axons” and the Visual function result is on record as “improved the visual function”.
